“Also recorded” adds a separate entry of the source. Where no end group is shown, it is not given here.
Key:
[1] = test system: BDC-5.10.3 T cell hybridoma; experiment: CD69 upregulation on T cell hybridoma co-cultured with insect cells infected with linked peptide I-A^g7 viruses; assay type: cell-based, mouse; settings: hybridomas 3 × 10^5/mL, 3 hrs co-culture with infected insect cells 1 × 10^5/mL
Description: (§1) FIG. 13F: The p3 glycine of pS3 was mutated to other amino acids. The effect of the mutations on early activation of the three BDC hybridomas was assessed by CD69 induction. The results are shown as the percent of cells expressing CD69 relative to those activated with the unmutated pS3 peptide. […] The sequences of the pS3 and ChgA peptide are also shown, highlighting the amino acids at the p3 position.
(§2) A mutational analysis was performed of 3 L mimotope at positions 2 and 3 followed by their respective ability to stimulate BDC-2.5, BDC-10.1 and BDC-5.10.3 hybridomas with 3 L mimotope substituted peptides. See, Table 3.

[2] = test system: BDC-10.1 T cell hybridoma; experiment: as above; assay type: cell-based, mouse; settings: hybridomas 3 × 10^5/mL, 3 hrs co-culture with infected insect cells 1 × 10^5/mL
Description: as §1, §2

T cell clone BDC-2.5 = experiment: IFNγ production by T cell clone in antigen assay (ELISA); assay type: cell-based, NOD mouse; settings: peptide or preparation as antigen
Description: The T cell clones are maintained in culture by periodic re-stimulation with irradiated NOD splenocytes and islet cells or β-membrane. To assay for antigen, resting responder T cells (i.e., for example, the cells at the end of the two-week restimulation period) are co-cultured for 24 hr with elicited peritoneal macrophages (PEC) as APC and either a test sample or control antigen. Control antigen will be in the form of islet cells or the whole-cell membrane fraction (i.e., for example, a β-membrane fraction). As described above, unlysed β-membrane is stored in aliquots at −80° C. for this purpose. Negative controls include responder cells alone and responders plus APC.
At the end of the culture period, supernatants are collected from the cultures and IFNγ production is measured by ELISA. Wells positive for IFNγ are indicative of T cells responding to antigen; the amount of cytokine produced is calculated from a standard curve and is directly proportional to the amount of antigen present.
Antigenicity of islet cells, cellular and biochemical fractions, peptides, or insect cells expressing IA^g7-peptide constructs, was assessed through responses of T cell clones or hybridomas made by fusing T cell clones to the TCR^− version of T cell lymphoma, BW5147. White et al., “Two better cell lines for making hybridomas expressing specific T cell receptors” J Immunol 143:1822-1825 (1989). T cell clone cultures typically contained 2×10^4 responder T cells, 2.5×10^4 NOD peritoneal exudate cells (PEC) as APC, and antigen (SEC/IEX fractions, peptides, islet cells); all assays were performed with β-Mem as a positive control. IFNγ was measured by ELISA of culture supernatants. For cultures with T cell hybridomas, antigen/MHC activation was assessed by IL-2 production measured by a bioassay using the HT-2 T cell line. Walker et al., “Antigenspecific. I region-restricted interactions in vitro between tumor cell lines and T cell hybridomas” J Immunol 128:2164-2169 (1982). Synthetic peptides were either produced in the Molecular Resource Center at National Jewish Health or obtained from CHI Scientific, Maynard, Mass.

BDC-2.5 T cell hybridoma = experiment: CD69 upregulation on T cell hybridoma co-cultured with insect cells infected with linked peptide I-A^g7 viruses; assay type: cell-based, mouse; settings: hybridomas 3 × 10^5/mL, 3 hrs co-culture with infected insect cells 1 × 10^5/mL
Description: as §1, §2

soluble IA^g7 = experiment: Peptide binding to IA^g7: competition with biotinylated HEL peptide; parameters: species or system NOD mouse; settings: competition with biotinylated pHEL 11 μM, pH 5.6, overnight
Description: FIG. 15B: A series of ChgA peptides tested for their ability to compete with a biotinylated HEL peptide for binding to soluble IA^g7. pS3-positive control peptide. IE^k moth cytochrome c-negative control peptide. N=2. Y axis: Percent of IA^g7-bound biotinylated HEL peptide as compared to IE^k. X axis: Log concentration of inhibitor peptide.
In order to confirm the unique binding register of the WE14 peptide, a series of peptides comprising N-terminal extensions and/or C-terminal deletions of WE14 were evaluated for their ability to stimulate the BDC-2.5 T cell clone (FIG. 6a) or to bind to IA^g7. See, FIG. 15A. […] See, FIG. 15B. Further, a pS3 mimotope was used as the positive control peptide and an irrelevant peptide from moth cytochrome c, pMCC, was the negative control peptide. The data were analyzed to determine the stimulatory or binding capacity of the peptides relative to WE14. See, FIG. 15C.
Soluble IA^g7 with covalently attached pHEL was treated with thrombin to cleave the linker attaching the peptide to the IA^g7 β chain. Kozono et al., “Production of soluble MHC class II proteins with covalently bound single peptides” Nature 369:151-154 (1994). Samples (0.5 μg) were incubated with a soluble biotinylated version of pHEL, Biotin-GGGMKRHGLDNYRGYSL (SEQ ID NO: 56) (11 μM), either alone or in the presence of various concentrations of potential competitors peptides, in 15 μL of pH 5.6 buffer overnight at room temperature. The sample was diluted to 100 μL of PBS in a well of a 96-well ELISA plate coated with an anti-IA^g7 monoclonal antibody, OX-6 (BD Pharmaceuticals). The captured IA^g7 was washed several times with PBS and the bound bio-pHEL detected with alkaline phosphatase coupled Extravadin (Sigma) and […].

Substance	Stimulation BDC-5.1.3 (upregulation of CD69) [1]	Stimulation BDC-10.1 (upregulation of CD69) [2]	Stimulation of T cell clone BDC-2.5 (IFNγ response), result in words (T cell clone BDC-2.5)	Stimulation BDC-2.5 (upregulation of CD69) (BDC-2.5 T cell hybridoma)	IA^g7 binding, result in words (soluble IA^g7)
SRLVLWVRME	+ (A positive response (+) indicates >40% of the hybridoma population stained above a background staining of 1% for unstimulated or of the same T cell hybridoma)	+ (A positive response (+) indicates >40% of the hybridoma population stained above a background staining of 1% for unstimulated or of the same T cell hybridoma)			
QWEDKRWSRMDQA			unable to stimulate		
SRLMLWVRME	+ (A positive response (+) indicates >40% of the hybridoma population stained above a background staining of 1% for unstimulated or of the same T cell hybridoma)	+ (A positive response (+) indicates >40% of the hybridoma population stained above a background staining of 1% for unstimulated or of the same T cell hybridoma)			
SRLCLWVRME	+ (A positive response (+) indicates >40% of the hybridoma population stained above a background staining of 1% for unstimulated or of the same T cell hybridoma)			+ (A positive response (+) indicates >40% of the hybridoma population stained above a background staining of 1% for unstimulated or of the same T cell hybridoma)	
WA8: sequential C-terminal truncation of WE14 (WSRMDQLA)			decreasing stimulatory activity		
SRLRLWVRME	+ (A positive response (+) indicates >40% of the hybridoma population stained above a background staining of 1% for unstimulated or of the same T cell hybridoma)	+ (A positive response (+) indicates >40% of the hybridoma population stained above a background staining of 1% for unstimulated or of the same T cell hybridoma)		+ (A positive response (+) indicates >40% of the hybridoma population stained above a background staining of 1% for unstimulated or of the same T cell hybridoma)	
SRLALWVRME	+ (A positive response (+) indicates >40% of the hybridoma population stained above a background staining of 1% for unstimulated or of the same T cell hybridoma)	+ (A positive response (+) indicates >40% of the hybridoma population stained above a background staining of 1% for unstimulated or of the same T cell hybridoma)		+ (A positive response (+) indicates >40% of the hybridoma population stained above a background staining of 1% for unstimulated or of the same T cell hybridoma)	
EDKRWSRMDQLAKELTAE [EE18, WE14 extended by 4 amino acids (EDKR)]			virtually eliminated		no effect
SRLSLWVRME	+ (A positive response (+) indicates >40% of the hybridoma population stained above a background staining of 1% for unstimulated or of the same T cell hybridoma)	+ (A positive response (+) indicates >40% of the hybridoma population stained above a background staining of 1% for unstimulated or of the same T cell hybridoma)		+ (A positive response (+) indicates >40% of the hybridoma population stained above a background staining of 1% for unstimulated or of the same T cell hybridoma)	
SRLTLWVRME	+ (A positive response (+) indicates >40% of the hybridoma population stained above a background staining of 1% for unstimulated or of the same T cell hybridoma)	+ (A positive response (+) indicates >40% of the hybridoma population stained above a background staining of 1% for unstimulated or of the same T cell hybridoma)		+ (A positive response (+) indicates >40% of the hybridoma population stained above a background staining of 1% for unstimulated or of the same T cell hybridoma)	
SRLYLWVRME	+ (A positive response (+) indicates >40% of the hybridoma population stained above a background staining of 1% for unstimulated or of the same T cell hybridoma)	+ (A positive response (+) indicates >40% of the hybridoma population stained above a background staining of 1% for unstimulated or of the same T cell hybridoma)			
SRLHLWVRME	+ (A positive response (+) indicates >40% of the hybridoma population stained above a background staining of 1% for unstimulated or of the same T cell hybridoma)	+ (A positive response (+) indicates >40% of the hybridoma population stained above a background staining of 1% for unstimulated or of the same T cell hybridoma)			
SRLPLWVRME	+ (A positive response (+) indicates >40% of the hybridoma population stained above a background staining of 1% for unstimulated or of the same T cell hybridoma)	+ (A positive response (+) indicates >40% of the hybridoma population stained above a background staining of 1% for unstimulated or of the same T cell hybridoma)		+ (A positive response (+) indicates >40% of the hybridoma population stained above a background staining of 1% for unstimulated or of the same T cell hybridoma)	
WL11: WE14 truncated by 3 C-terminal amino acids (WSRMDQLAKEL)			decreasing stimulatory activity		indistinguishable from the negative control peptide
SRLGLWVRME	+ (A positive response (+) indicates >40% of the hybridoma population stained above a background staining of 1% for unstimulated or of the same T cell hybridoma)	+ (A positive response (+) indicates >40% of the hybridoma population stained above a background staining of 1% for unstimulated or of the same T cell hybridoma)		+ (A positive response (+) indicates >40% of the hybridoma population stained above a background staining of 1% for unstimulated or of the same T cell hybridoma)	
Enz: WE14 after transglutaminase modification (WSRMDQLAKELTAE; also: transglutaminase modification, site not given here)			highly antigenic		
SRFGLWVRME		+ (A positive response (+) indicates >40% of the hybridoma population stained above a background staining of 1% for unstimulated or of the same T cell hybridoma)		+ (A positive response (+) indicates >40% of the hybridoma population stained above a background staining of 1% for unstimulated or of the same T cell hybridoma)	
WSRMD [WD5, shortest C-terminal truncation of WE14, motif only]			decreasing stimulatory activity; also recorded: lacked any activity at all		
